Measured values as given in US20250388623A1, “PEPTIDE INHIBITOR AND USE THEREOF” (CHENGDU BRILLIANT INSPIRATION BIOTHERAPEUTICS CO., LTD, priority 2022, published 2025).

Legend:
[1] = system: TSP-1-dependent TGF-β activation; assay: TSP-1-dependent TGF-β activation in PMA-differentiated THP-1 cells with 293-TGFβ Res reporter cells; type: cell-based; conditions: 100 μM polypeptide, 24 h; ratio to negative control group (1.00)
Procedure: In this Example, the inhibitory effects of the polypeptides on TSP-1-dependent TGF-β activation were detected using a model based on a high TSP-1 expressing cell. In the assay, THP-1 cells (American Typical Culture Collection, ATCC, TIB-20) were induced by phorbol ester (Phorbol 12-myristate 13-acetate, PMA) (Sigma, Catalog No. P1585) and differentiated into macrophage-like cells with distinct macrophage expression profiles.
The experiment was performed as follows: THP-1 cells were inoculated in a 96-well plate, and treated with 300 nM PMA for differentiation and adherence to form macrophage-like cells. 100 μM polypeptide was added (For the negative control group, an equal volume of PBS (the solvent for the polypeptide) was added, while the positive control group received an equal concentration of the polypeptide shown in SEQ ID NO: 50.) The cells were treated for 24 hours, and then a 293 reporter cell strain, 293-TGFβ Res cell strain (novoprotein, Catalog No. XCC03-1), was added for detecting TGF-β activity, and co-cultivated for 24 hours. Bio-Lite Luciferase Assay lysate comprising fluorescent substrate (Vazyme, Catalog No. DD1201-01) was added, and the fluorescent intensity was detected using a multifunctional microplate reader (TECAN, model Infinite 200 Pro). The inhibitory effect of the polypeptide on TGF-β activation was assessed by calculating the ratio of the fluorescence signal from the polypeptide-treated groups to that of the negative control group.

[2] = system: mouse lung fibrosis model induced by bleomycin (BLM); assay: Inflammatory and fibrotic pathology (HE, Masson's trichrome) in BLM mouse fibrosis model; type: in vivo; set-up: scale not given here
Procedure: This Example was to assess the inhibitory effect of polypeptides on fibrotic pathology. 6- to 8-week-old male C57/6J mice weighing 18-20 g were used as subjects for the study. The experimental animals were randomized into groups, 6 animals in each group. On the day of modeling (Day 1), a single dose of 0.7 USP/kg of BLM solution was administered via the tracheal route to the BLM group and each peptide-treated group to induce the model. The negative control group received an equal volume of saline. Treatment dosing started on Day 8. Each peptide-treated group received the peptide drug intratracheally at a dosage of 3 mg/kg, while the positive control group received the peptide of SEQ ID NO: 50 at the same dosage, and the administration frequency was twice a week, with a total of 4 administrations. The BLM model group and the negative control group received an equal volume of solvent (saline) as a control. The procedure followed that described in Example 4.
On Day 21, the lung tissues were dissected, washed with saline to remove blood stains, and dried with gauze. Histopathological analysis was then performed on the dissected lung tissues. The lung tissues were perfused with 0.5 mL of paraformaldehyde via the trachea and placed in 4 mL of paraformaldehyde. A small amount of gauze was added to ensure the lung tissues were completely immersed in the fixative solution. The tissues were fixed for more than 24 hours. One lobe of the left lung and four lobes of the right lung were trimmed to the maximum coronal plane, placed in an embedding cassette, dehydrated overnight, and then paraffin-embedded to make 3 μm sections. An autostainer (Leica, model ST5010) was used for Hematoxylin (Herst, lot no. 201905)-Eosin (Chron, lot no.2018070301) (HE) staining, and MASSON'S trichrome (Celestineblue, Chron, lot no. MKCH8129; Aniline blue, Yuanye, lot no. H70J11S115483; Ponceau, Sigma, lot no. SHBM2047) staining. After mounting the sections, they were scanned using a digital panoramic scanner (Zhiyue, model WS-10). For each lung lobe, ≤10 visual fields were captured under a 20× magnification. The severity of inflammation and the severity of fibrosis were assessed using HE staining and Masson's trichrome staining, respectively, to evaluate the inhibitory effects of the polypeptides on inflammatory infiltration and fibrotic deposition at pathological fibrotic sites.

[3] = target: T1, binding of TSP-1 protein to CD36, a TSP-1 receptor protein (Homo sapiens, UniProt P07996); assay: ELISA: blocking of CD36 binding to TSP-1 protein
T1 construct: purchased novoprotein (TSP-1); R&D Systems (Fc-tagged CD36) CU45 (TSP-1); 1955-CD-050 (CD36-Fc)
T1 sequence (P07996 19-1170): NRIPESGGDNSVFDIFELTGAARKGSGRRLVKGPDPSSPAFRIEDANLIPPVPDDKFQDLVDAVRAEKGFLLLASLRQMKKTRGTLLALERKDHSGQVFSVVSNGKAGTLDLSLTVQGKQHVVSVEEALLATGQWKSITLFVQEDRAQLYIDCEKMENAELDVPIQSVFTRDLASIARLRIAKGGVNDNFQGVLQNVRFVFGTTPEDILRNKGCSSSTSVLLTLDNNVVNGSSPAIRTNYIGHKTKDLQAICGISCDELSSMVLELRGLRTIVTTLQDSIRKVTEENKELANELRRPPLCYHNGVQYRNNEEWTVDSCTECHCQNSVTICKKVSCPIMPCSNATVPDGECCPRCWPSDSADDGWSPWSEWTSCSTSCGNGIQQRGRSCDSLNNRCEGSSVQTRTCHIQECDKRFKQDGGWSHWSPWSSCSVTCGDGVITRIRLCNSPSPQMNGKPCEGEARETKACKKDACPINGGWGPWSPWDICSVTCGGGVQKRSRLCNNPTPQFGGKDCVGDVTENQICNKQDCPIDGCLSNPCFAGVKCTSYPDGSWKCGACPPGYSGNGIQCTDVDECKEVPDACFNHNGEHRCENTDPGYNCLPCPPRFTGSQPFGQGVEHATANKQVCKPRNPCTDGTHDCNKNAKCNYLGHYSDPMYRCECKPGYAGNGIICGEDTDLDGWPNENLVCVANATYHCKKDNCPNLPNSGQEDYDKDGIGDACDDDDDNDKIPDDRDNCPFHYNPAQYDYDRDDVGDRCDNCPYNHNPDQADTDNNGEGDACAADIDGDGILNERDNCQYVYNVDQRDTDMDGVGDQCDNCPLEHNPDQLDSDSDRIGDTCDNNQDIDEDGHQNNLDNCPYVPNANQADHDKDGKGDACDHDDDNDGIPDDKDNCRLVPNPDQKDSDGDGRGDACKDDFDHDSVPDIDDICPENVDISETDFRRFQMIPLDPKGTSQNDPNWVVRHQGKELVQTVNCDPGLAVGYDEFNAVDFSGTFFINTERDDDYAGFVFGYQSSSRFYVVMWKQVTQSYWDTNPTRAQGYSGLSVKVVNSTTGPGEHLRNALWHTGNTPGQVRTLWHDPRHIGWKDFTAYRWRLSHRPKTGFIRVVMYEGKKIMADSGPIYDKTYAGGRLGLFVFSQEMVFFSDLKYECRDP
Procedure: ELISA assay was performed to detect the ability of the polypeptides to block the binding of TSP-1 protein to CD36, a TSP-1 receptor protein. TSP-1 protein (novoprotein, Catalog No. CU45) was diluted to 2 μg/mL using 100 mM carbonate buffer and added to sample wells (100 μL/well) of a 96-well ELISA plate (Thermo, Catalog No. 437111), and incubated overnight at 4° C.; after washing the plate twice using 1×PBST wash solution, 200 μL of 1.5% BSA (Sigma, Catalog No. B2064) was added to each well, and incubated at 37° C. for 2 h; after washing the plate 3 times using 1×PBST wash solution, the analytes were added (100 μL/well, 3 replicate wells; for the control group, 0.25 μg/mL of Fc-tagged CD36 protein (R&D Systems, Catalog No. 1955-CD-050); and for the polypeptide-treated groups, a mixture containing Fc-tagged CD36 protein and polypeptide at final concentrations of 0.25 μg/mL and 100 μM, respectively), and incubated at 37° C. for 3 h. After washing the plate 5 times using 1×PBST wash solution, a 1:500 dilution solution of FITC-labeled anti-Fc-tagged antibody (Beyotime, Catalog No. A0556) was added, and incubated for 1 h at 37° C.; after washing the plate 5 times using 1×PBST wash solution, a multifunctional ELISA instrument (TECAN, model: Infinite 200 Pro) was used to detect the intensity of FITC fluorescence signal in each sample well. The ability of the polypeptides to block CD36 binding to TSP-1 protein (Table 2-1) was assessed by calculating the ratio of the fluorescence signal from the polypeptide-treated groups to that of the control group, allowing for the determination of the blocking rate of the polypeptides in inhibiting CD36 binding to TSP-1 protein, i.e., (fluorescence signal of the control group-fluorescence signal of the polypeptide-treated group)/fluorescence signal of the control group×100%. Based on the blocking rate results obtained at the single concentration and on the polypeptide molecule properties, the preferred polypeptide molecules were assayed for concentration dependence (at 0 μM, 0.5 μM, 1 μM, 5 μM, 10 μM, and 100 μM), and IC50 values of the polypeptides for blocking CD36 binding to TSP-1 protein were determined to further assess the abilities of the preferred polypeptide molecules to block the binding of CD36 to TSP-1 (Table 2-2).

active TGF-β = assay: Active TGF-β level in lung tissue, bleomycin (BLM) mouse lung fibrosis model; type: in vivo; conditions: single intratracheal dose 3 mg/kg on Day 7, lung 24 h later; BLM model group = 100.00
Excerpt: This Example was to evaluate the inhibitory effect of polypeptides on active TGF-β level during the progression of fibrotic disease. In this Example, a mouse lung fibrosis model induced by bleomycin (BLM) was used. The BLM animal model offers advantages, including a close mimicry of the pathological features of the primary disease, ease of use, and good reproducibility. It is the most representative model for studying the mechanisms of fibrosis and is recommended for evaluating drug efficacy.
In this Example, 6 to 8-week-old male C57/6J mice weighing 18-20 g were used as subjects for the study. The experimental animals were randomized into groups, 8 animals in each group, and the expressions of pro-fibrotic factors were detected at the endpoint of the experiment (Day 8) in this model. In this example, an aerosol intratracheal metered dosing applicator (Yuyan, model YAN30012) was utilized for intratracheal administration during the modeling and drug delivery processes. The dosing was performed as follows (An Official American Thoracic Society Workshop Report: Use of Animal Models for the Preclinical Assessment of Potential Therapies for Pulmonary Fibrosis, Am J Respir Cell Mol Biol Vol 56, Iss 5, pp 667-679, May 2017): The experimental animals were anesthetized with aerosolized isoflurane (RWD, lot no. 22041701) using a small animal anesthesia machine (RWD, model R500IE). Animals in the appropriate anesthetic state were positioned supine with heads facing up and bodies tilted on an operating platform (tilted at approximately) 60°, secured by their incisors. The practitioner gently lifted the tongue with tissue forceps in the right hand, pushing it outward and upward to open the animal's lower jaw. Holding the laryngoscope (Yuyan, model SR310-RW) in the left hand, the practitioner slid its anterior leaf-shaped blade along the midline of the tongue into the oral cavity until reaching the glottis, gently pressing the body and root of the tongue upward. The needle of the drug applicator was then inserted through the mouth into the glottis alongside the laryngoscope, and 50 μL of liquid was quickly injected. On the day of modeling (Day 1), the experimental animals were randomly assigned to groups and administered a 0.7 USP/kg dose of bleomycin solution (HanHui Pharmaceutical, Batch No. 20080511) via the tracheal route to induce the model. On Day 7, each peptide-treated group received a single intratracheal dose of 50 μL peptide drug (at a dosage of 3 mg/kg), while the model group was given an equal volume of solvent (saline, Kelong, Batch No. L221062501) as a control. Twenty-four hours after drug administration, the animals were dissected to collect lung tissue, which was ground in liquid nitrogen to extract total protein from the lung tissue. The active TGF-β content in the lung tissue of mice from each group was measured using the TGF-β ELISA kit (BOSTER, catalog number EK0515). The ratio of active TGF-β content between the peptide-treated group and the model group was calculated to evaluate the effect of the peptide on active TGF-β level.

P-Smad2/3 = P-Smad2/3 content in lung tissue, BLM mouse fibrosis model; type: in vivo; conditions: single intratracheal dose 3 mg/kg on Day 7, lung 24 h later; BLM model group = 100.00
Excerpt: This example aimed to evaluate the inhibitory effect of polypeptides on the TGF-β downstream signaling pathway during fibrosis progression. TGF-β intracellular signaling relies on the phosphorylation events of Smad family proteins. The increase in Smad2/3 phosphorylation levels is an important indicator that signal transduction has occurred in the TGF-β signaling pathway.
In this example, 6- to 8-week-old male C57/6J mice weighing 18-20 g were used as subjects for the study. The experimental animals were randomized into groups, eight animals in each group. In this example, intratracheal administration was performed using an aerosol intratracheal metered dosing applicator during both the modeling and drug delivery processes, as described in Example 4. On the day of modeling (Day 1), the experimental animals were randomly assigned to groups and administered a 0.7 USP/kg dose of bleomycin solution (HanHui Pharmaceutical, Batch No. 20080511) via the tracheal route to induce the model. On Day 7, each peptide-treated group received a single intratracheal dose of peptide drug at a dosage of 3 mg/kg, while the BLM model group was given an equal volume of solvent (saline) as a control. Twenty-four hours after drug administration, the animals were dissected, and the lung tissues were collected and frozen in liquid nitrogen for future use. Total protein from the lung tissue was extracted after grinding the tissue in liquid nitrogen, and the total P-Smad2/3 content in the tissue was measured by using P-Smad2/3 ELISA kit (CST, Catalog No. 12001C). The ratio of the P-Smad2/3 content between the peptide-treated group and the model group was calculated to evaluate the effect of the peptide on TGFβ signaling.

[4] = system: human liver cancer HepG2/C3A cells; assay: Transwell tumor cell migration, co-culture with PMA-differentiated THP-1 cells; type: cell-based; conditions: 100 μM polypeptide 48 h, co-culture 24 h; negative control group = 100.00
Procedure: (§1) This Example was to assess the effects of polypeptides on the migration abilities of different tumor cells. The experiment was performed using transwell nested chambers (membrane pore size of 8 μm), where THP-1 cells were inoculated in the lower chamber and treated with 300 nM PMA (Sigma, Catalog No.P1585) for differentiation and chamber-wall adherence, and then treated with 100 μM polypeptide (in the negative control, an equal volume of solvent was added) for 48 hours. The upper chamber was inoculated with tumor cells, human lung adenocarcinoma A549 cells (American Typical Culture Collection, ATCC, CCL-18), and co-cultured for 24 hours; or inoculated with human liver cancer HepG2/C3A cells (ATCC, CRL-10741), and co-cultured for 24 h; or inoculated with human breast cancer MCF7 cells (ATCC, HTB-22), and co-cultured for 48 h. After that, the upper chamber was taken out, fixed with 70% ethanol for 10 min and washed, then stained with Giemsa staining solution (Beyotime, Catalog No.C0131) for 45 min. After washing with double distilled water 2-3 times, unmigrated cells were wiped off the upper layer with a cotton swab. After the chamber was dried, it was observed under a microscope, and five different fields of view under a 100× magnification were randomly selected for counting and statistics. The polypeptides had significant inhibitory effects on the migratory abilities of human lung adenocarcinoma cells, human liver cancer cells, and human breast cancer cells.

[5] = system: human breast cancer MCF7 cells; assay: as above; type: cell-based; conditions: 100 μM polypeptide 48 h, co-culture 48 h; negative control group = 100.00
Procedure: as §1

[6] = system: human lung adenocarcinoma A549 cells; assay: as above; type: cell-based; conditions: 100 μM polypeptide 48 h, co-culture 24 h; negative control group = 100.00
Procedure: as §1

[7] = 100 μM polypeptide, 0.25 μg/mL Fc-tagged CD36, blocking of CD36 binding to TSP-1

Row | Substance | Mean (relative fluorescence intensity) [1] | Inflammatory score Mean ([2]; 3 mg/kg intratracheal twice weekly x4 from Day 8, Day 21, HE staining, BLM model 2.25, negative control 0.36) | Fibrosis score Mean ([2]; 3 mg/kg intratracheal twice weekly x4 from Day 8, Day 21, Masson's trichrome, BLM model 3.25, negative control 1.01) | inhibition at 100 µM ([3]; 3 h, 100 μM polypeptide, 0.25 μg/mL Fc-tagged CD36, blocking of CD36 binding to TSP-1, read-out: Blocking rate (Mean, %)) [%] | IC50 ([3]; concentrations 0-100 μM) [µM] | active TGF-β content in lung tissue, ratio to model group, Mean(%) (active TGF-β) | P-Smad2/3 content in lung tissue, ratio to model group, Mean(%) (P-Smad2/3) | HEPG2/C3A migration Mean (%) [4] [%] | MCF7 migration Mean (%) [5] [%] | A549 migration Mean (%) [6] [%] | Blocking rate (Mean, %) [3, 7] [%]
1 | H-YRVRFLAKENVTQDAEDN-OH [SEQ ID NO: 50, Tyr-Arg-Val-Arg-Phe-Leu-Ala-Lys-Glu-Asn-Val-Thr-Gln-Asp-Ala-Glu-Asp-Asn, reference compound] | 0.84 | 1.98 | 2.81 | 23.4 | 10.6 | – | – | – | – | – | –
2 | Ac-Gln-Asp-Ala-Glu-Asp-Asn-NH2 (Ac-QDAEDN-NH2) [SEQ ID NO: 05] | – | – | – | – | – | 74.15 | 72.35 | 74.72 | 42.55 | 63.92 | 15.07
3 | Ac-Thr-Gln-Asp-Ala-Glu-Asp-NH2 (Ac-TQDAED-NH2) [SEQ ID NO: 04] | – | – | – | – | – | 74.10 | 67.91 | 81.13 | 62.78 | 57.90 | 16.89
